Reference: the C3SDB collision cross section collection
“And” between values parts separate entries of the source, which are not always exact repeats. Identical values can stand only once.

Details: instrument: DT, single field, calibrated with ESI Low Concentration Tuning Mix (Agilent)

| Structure (SMILES) | collision cross section (N2) ([M-H]-) | collision cross section (N2) ([M+H]+) | collision cross section (N2) ([M+Na-2H]-) | collision cross section (N2) ([M+Na]+) | collision cross section (N2) ([M+K]+) |
| --- | --- | --- | --- | --- | --- |
| C[C@H](CCC(=O)O)[C@H]1CC[C@H]2[C@@H]3CC[C@@H]4C[C@H](O)CC[C@]4(C)[C@H]3C[C@H](O)[C@]12C [DEOXYCHOLATE] | 202.2 Å² and 202.3 Å² | – | – | – | – |
| Nc1ncnc2c1ncn2[C@@H]1O[C@H](COP(=O)(O)OP(=O)(O)O[C@H]2O[C@H](CO)[C@@H](O)[C@H](O)[C@H]2O)[C@@H](O)[C@H]1O [ADP-GLUCOSE] | 217.5 Å² | 216.1 Å² | 218.4 Å² | 224.9 Å² | – |
| CCCCCCCCCCCC(=O)O[C@H](CC(=O)[O-])C[N+](C)(C)C [LAUROYLCARNITINE] | – | 199 Å² | – | 209.4 Å² | – |
| C[C@H](CCC(=O)O)[C@H]1CC[C@H]2[C@@H]3[C@@H](O)C[C@@H]4C[C@H](O)CC[C@]4(C)[C@H]3CC[C@]12C [URSODEOXYCHOLATE] | 200.9 Å² | – | – | 198.7 Å² | – |
| CC1C(=O)Nc2ccccc21 (centres undefined) [3-METHYL-2-OXINDOLE] | – | 130.4 Å² | – | – | – |
| CN[C@H](CC(=O)O)C(=O)O [N-METHYLASPARTATE] | 124 Å² | 130 Å² | – | 134.7 Å² | – |
| OC[C@H]1O[C@H](OC[C@H]2OC(O)(CO)[C@@H](O)[C@@H]2O)[C@H](O)[C@@H](O)[C@@H]1O (some centres undefined) [PALATINOSE] | 177.9 Å² | – | – | 176 Å² | 177.6 Å² |
| CCC[C@H](N)C(=O)O [NORVALINE] | 142 Å² | 120.9 Å² | – | 133.1 Å² | – |
| O=C(O)CC(O)(CC(=O)O)C(=O)O [CITRATE] | 127.1 Å² | – | – | 143.1 Å² | – |
| Nc1nc(=O)c2ncn([C@H]3C[C@H](O)[C@@H](COP(=O)(O)OP(=O)(O)OP(=O)(O)O)O3)c2[nH]1 [DGTP] | 191.4 Å² | – | 182.7 Å² | – | – |
| NC(=O)c1ccc[n+]([C@@H]2O[C@H](COP(=O)(O)OP(=O)(O)OC[C@H]3O[C@@H](n4cnc5c(=O)nc[nH]c54)[C@H](O)[C@@H]3O)[C@@H](O)[C@H]2O)c1 [NICOTINAMIDE HYPOXANTHINE DINUCLEOTIDE] | 217.7 Å² | 221.1 Å² | 217.2 Å² | 229.7 Å² | – |
| CC(=O)N[C@@H](C)C(=O)O [N-ACETYLALANINE] | – | – | – | 134.7 Å² | – |
| O=C(O)[C@H]1O[C@H](O)[C@H](O)[C@@H](O)[C@H]1O [GALACTURONATE] | 131.3 Å² | – | – | 145.3 Å² | – |
| CC[C@H](O)C(=O)O [2-HYDROXYBUTYRATE] | 117.2 Å² | – | – | – | – |
| CS(=N)(=O)CCC(N)C(=O)O (centres undefined) [METHIONINE SULFOXIMINE] | 136.2 Å² | 136.9 Å² | – | 138.1 Å² | – |
| Cc1cc2nc[nH]c2cc1C [5,6-DIMETHYLBENZIMIDAZOLE] | 129.9 Å² | 130.3 Å² | – | – | – |
| Cc1ccc(O)c(O)c1 [4-METHYLCATECHOL] | 121 Å² | – | – | – | – |
| N[C@@H]1[C@@H](O)[C@H](O)[C@@H](COP(=O)(O)O)O[C@@H]1O [GLUCOSAMINE 6-PHOSPHATE] | 148.1 Å² | – | – | – | – |
| C[S+](CC[C@H](N)C(=O)[O-])C[C@H]1O[C@@H](n2cnc3c(N)ncnc32)[C@H](O)[C@@H]1O (some centres undefined) [S-ADENOSYLMETHIONINE] | – | 185.7 Å² | – | – | – |
| Cc1ncc(C[n+]2csc(CCOP(=O)(O)O)c2C)c(N)n1 [THIAMINE MONOPHOSPHATE] | – | 171 Å² | 174.3 Å² and 180.2 Å² | 176.9 Å² | – |
| O=CCc1c[nH]c2ccccc12 [INDOLEACETALDEHYDE] | 130.7 Å² | 132.3 Å² | – | – | – |
